Test results as given in patent publication US20100093738A1, “Fungicidal Compounds and Fungicidal Compositions” (BASF SE, priority 2006, published 2010).

How the values were obtained:
Pyricularia oryzae = assay: microbe, parasite or virus in culture; format: cell-based; details: for inhibition at 0.25 ppm: Pyricularia oryzae, 168 h, read-out: Observed activity (%)
Botrytis cinerea = assay: Activity against the gray mold pathogen Botrytis cinerea in the microtiter test; format: cell-based; details: 168 h, single active compound, day 7, read-out: Observed activity (%); for inhibition at 1 ppm: conc. 1 ppm, efficacy in % of untreated control

Row | SMILES | inhibition at 0.25 ppm (Pyricularia oryzae) [%] | inhibition at 1 ppm (Botrytis cinerea) [%] | other results
1 | Fc1ccc([C@]2(Cn3cncn3)O[C@H]2c2ccccc2Cl)cc1 [II.5, epoxiconazol] | – | – | Observed activity (%) (Pyricularia oryzae; single active compound, conc. 0.25 ppm, day 7): 4%
2 | Cc1cc(C2CC2)nc(Nc2ccccc2)n1 [II.2, cyprodinil] | 63 | – | inhibition at 0.063 ppm (Botrytis cinerea; conc. 0.063 ppm): 72%
3 | CC(C1CC1)C(O)(Cn1cncn1)c1ccc(Cl)cc1 (stereo not drawn) [II.4, cyproconazol] | 0 | – | –
4 | COC(=O)N(OC)c1ccccc1COc1ccn(-c2ccc(Cl)cc2)n1 [II.1, pyraclostrobin] | – | 19 | –
5 | O=C(Nc1ccccc1-c1ccc(Cl)cc1)c1cccnc1Cl [II.3, boscalid] | – | 58 | –
